Test results: US20070065385A1, “Cold production method for pearly lustre preparations containing alcohols” (Clariant International, Ltd., priority 2005, published 2007)

Legend:
[1] = Degree of hydrolysis of stearoxytrimethylsilane to stearyl alcohol in ethanol/water at varying pH, by GC analysis; type: physicochemical; conditions: for % Hydrolysis of Stearoxytrimethylsilane to Stearyl Alcohol: 25° C., 5 wt% in 90 wt% ethanol/5 wt% D.I. water
Source text: The pearlescent effect of the present invention appears to be produced by the interaction of the siloxane compound, trimethylsilylalkylsilsesquioxane in the alcoholic hydrogel. It is believed that the trimethylsilylalkylsilsesquioxanes, such as stearoxytrimethylsilane, which is initially a liquid in anhydrous form, after dispersion in the alcoholic hydrogel, undergoes a degree of hydrolysis which results in the formation of finely dispersed crystals of pure stearyl alcohol in the alcoholic hydrogel. This process continues until the pearlescent appearance, or the desired degree of opacity is achieved. The degree of pearlescence or the density of the opacity can be controlled by controlling the amount of the siloxane and other components. The pH of the mixture influences the speed of the hydrolysis reaction. Preferably, the pH of the mixture of the alcoholic hydrogel and the trimethylsilylalkylsilsesquioxane is from 3 to 6.
The degree of hydrolysis of stearoxytrimethylsilane was determined in an ethanol/water mixture at varying pH levels ranging from 4.4 to 9.1. A mixture comprising 5 weight percent anhydrous stearoxytrimethylsilane (Available from Clariant Corp., as SILCARE 1 M71), 90 weight percent ethanol and 5 weight percent de-ionized water (D.I.) was subjected to various pH levels and the degree of hydrolysis to stearyl alcohol was determined by GC analysis.

[2] = cited from earlier work

In the case of `CCCCCCCCCCCCCCCCCCO[Si](C)(C)C` [Stearoxytrimethylsilane, stearoxytrimethylsilane], the speed of hydrolysis ([1]; below a pH of 6) is reported as “quickly hydrolyses”, the “% Hydrolysis of Stearoxytrimethylsilane to Stearyl Alcohol” value (shortened to “% Hydrolysis of Stearoxytrimethylsilane”) ([1]; pH (initial) 4.4, 2 Days) is reported as greater than 99% and the “% Hydrolysis of Stearoxytrimethylsilane” value ([1]; pH (initial) 4.4, 14 Days) is reported as greater than 99%. The “% Hydrolysis of Stearoxytrimethylsilane” value ([1]; pH (initial) 4.4, 15 minutes (initial)) was greater than 99%, the “% Hydrolysis of Stearoxytrimethylsilane” value ([1]; pH (initial) 5.3, 2 Days) was greater than 99% and the “% Hydrolysis of Stearoxytrimethylsilane” value ([1]; pH (initial) 5.3, 14 Days) was greater than 99%. For the same compound, the “% Hydrolysis of Stearoxytrimethylsilane” value ([1]; pH (initial) 5.3, 15 minutes (initial)) was greater than 99%, the “% Hydrolysis of Stearoxytrimethylsilane” value ([1]; pH (initial) 5.5, 2 Days) was 97% and the “% Hydrolysis of Stearoxytrimethylsilane” value ([1]; pH (initial) 5.5, 14 Days) was greater than 99%. For the same compound, the “% Hydrolysis of Stearoxytrimethylsilane” value ([1]; pH (initial) 5.5, 15 minutes (initial)) was 55%, the “% Hydrolysis of Stearoxytrimethylsilane” value ([1]; pH (initial) 6.2, 2 Days) was 36% and the “% Hydrolysis of Stearoxytrimethylsilane” value ([1]; pH (initial) 6.2, 14 Days) was 95%. For the same compound, the “% Hydrolysis of Stearoxytrimethylsilane” value ([1]; pH (initial) 6.2, 15 minutes (initial)) was 6%, the “% Hydrolysis of Stearoxytrimethylsilane” value ([1]; pH (initial) 8.1, 2 Days) was 10% and the “% Hydrolysis of Stearoxytrimethylsilane” value ([1]; pH (initial) 8.1, 14 Days) was 48%. The “% Hydrolysis of Stearoxytrimethylsilane” value ([1]; pH (initial) 8.1, 15 minutes (initial)) was 2%, the “% Hydrolysis of Stearoxytrimethylsilane” value ([1]; pH (initial) 9.1, 2 Days) was 4% and the “% Hydrolysis of Stearoxytrimethylsilane” value ([1]; pH (initial) 9.1, 14 Days) was 21%. The “% Hydrolysis of Stearoxytrimethylsilane” value ([1]; pH (initial) 9.1, 15 minutes (initial)) was 2%.
For `CCCCCCCCCCCCCCCCCCO` [Stearyl alcohol], the solubility in alcohol ([2]; alcohol) is given as “soluble” and the solubility in water ([2]; water) is given as “insoluble”.
